As usually defined, the IC50 is the point on the concentration scale where inhibition reaches its midpoint.

Experimental findings from patent US20250368624A1, “M24B AMINOPEPTIDASE INHIBITORS FOR CARD8 INFLAMMASOME ACTIVATION” (Memorial Sloan-Kettering Cancer Center, priority 2022, published 2025) are described below.

One experiment addresses recombinant human PEPD (Homo sapiens (Human), UniProt P12955). In words: PEPD substrate assay (Ala-Pro cleavage, L-alanine assay kit). It counts as biochemical. Particulars: 50 nM recombinant human PEPD, Ala-Pro 40 μM, 25° C. How it is done: Protein purification. Human prolidase (PEPD) was generated and purified. XPNPEP1 in pET15-b containing a 6× His tag was expressed in E. coli Rosetta DE3 cells.
Substrate assays. For the PEPD assay, a solution of substrate (Ala-Pro) was prepared in DMSO. 24 μL of 50 nM recombinant human PEPD were added to a 384-well, black, clear-bottom plate (Corning) with 1 μL dipeptide Ala-Pro (final conc. 40 μM). […] For the AMC reporter assays, experiments were performed with cell lysates. 5 μL solution of substrate (2.5 mM Ala-AMC) was added the mixture of 10 μL HEK293T cell lysates (2.5 mg/ml) and 10 μL of indicated compounds in a 384-well, black, clear-bottom plate (Corning) to initiate the reaction. Substrate cleavage was measured as increasing fluorescence signal (Ex/Em: 380/460 nm) recorded at 25° C. for 20 mins. […] H-Lys(abz)-Pro-Pro-pNA substrate was added to a final concentration of 100 μM, and fluorescence was monitored (Ex/Em: 320/410) for 60 mins.

Another experiment concerns the target XPNPEP1 (Homo sapiens (Human), UniProt Q9NQW7). The experiment can be described thus: XPNPEP1 substrate assay (H-Lys(abz)-Pro-Pro-pNA). Particulars: XPNPEP1 3.5 nM, substrate 100 μM, 60 mins. Type of experiment: biochemical. The method, then:
Protein purification. Human prolidase (PEPD) was generated and purified. XPNPEP1 in pET15-b containing a 6× His tag was expressed in E. coli Rosetta DE3 cells. Cells were induced with IPTG for 16 h at 37° C., pelleted and lysed in buffer A (20 mM Tris-HCl (pH 7.9), 500 mM NaCl, and 10% (v/v) glycerol) by sonication. Affinity purification chromatography was performed using TALON resin and according to previously published protocols (Li et al., 2008).
Substrate assays. For the PEPD assay, a solution of substrate (Ala-Pro) was prepared in DMSO. 24 μL of 50 nM recombinant human PEPD were added to a 384-well, black, clear-bottom plate (Corning) with 1 μL dipeptide Ala-Pro (final conc. 40 μM). Alanine liberated was measured as increasing fluorescence signal (Resorufin, Ex/Em: 535/587 nm) recorded at 25° C. using an L-alanine assay kit (Abcam, ab83394) at 25° C. according to manufacturer's instructions. For the AMC reporter assays, experiments were performed with cell lysates. 5 μL solution of substrate (2.5 mM Ala-AMC) was added the mixture of 10 μL HEK293T cell lysates (2.5 mg/ml) and 10 μL of indicated compounds in a 384-well, black, clear-bottom plate (Corning) to initiate the reaction. Substrate cleavage was measured as increasing fluorescence signal (Ex/Em: 380/460 nm) recorded at 25° C. for 20 mins. For XPNPEP1 enzymes (XPNPEP1 3.5 nM) were plated on a black 384-well clear bottom plate and treated with the indicated doses of compounds. H-Lys(abz)-Pro-Pro-pNA substrate was added to a final concentration of 100 μM, and fluorescence was monitored (Ex/Em: 320/410) for 60 mins.

Chain of XPNPEP1 (Q9NQW7 whole entry): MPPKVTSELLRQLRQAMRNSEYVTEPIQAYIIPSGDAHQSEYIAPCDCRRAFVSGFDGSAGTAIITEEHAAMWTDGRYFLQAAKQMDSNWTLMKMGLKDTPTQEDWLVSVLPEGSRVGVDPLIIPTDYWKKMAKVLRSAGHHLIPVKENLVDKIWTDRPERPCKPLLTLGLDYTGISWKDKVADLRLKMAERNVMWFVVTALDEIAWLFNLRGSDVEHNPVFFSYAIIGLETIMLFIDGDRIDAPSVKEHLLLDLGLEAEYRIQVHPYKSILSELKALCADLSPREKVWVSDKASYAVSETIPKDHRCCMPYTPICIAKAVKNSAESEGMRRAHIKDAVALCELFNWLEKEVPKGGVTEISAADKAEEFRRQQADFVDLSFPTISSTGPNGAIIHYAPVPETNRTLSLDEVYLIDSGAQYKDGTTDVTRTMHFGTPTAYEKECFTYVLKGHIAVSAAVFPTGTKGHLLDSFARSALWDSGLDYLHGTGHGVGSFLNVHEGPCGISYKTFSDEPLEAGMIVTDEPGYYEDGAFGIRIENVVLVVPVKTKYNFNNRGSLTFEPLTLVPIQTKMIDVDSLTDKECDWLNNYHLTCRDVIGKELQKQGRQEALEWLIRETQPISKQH
Chain of recombinant human PEPD (P12955 whole entry): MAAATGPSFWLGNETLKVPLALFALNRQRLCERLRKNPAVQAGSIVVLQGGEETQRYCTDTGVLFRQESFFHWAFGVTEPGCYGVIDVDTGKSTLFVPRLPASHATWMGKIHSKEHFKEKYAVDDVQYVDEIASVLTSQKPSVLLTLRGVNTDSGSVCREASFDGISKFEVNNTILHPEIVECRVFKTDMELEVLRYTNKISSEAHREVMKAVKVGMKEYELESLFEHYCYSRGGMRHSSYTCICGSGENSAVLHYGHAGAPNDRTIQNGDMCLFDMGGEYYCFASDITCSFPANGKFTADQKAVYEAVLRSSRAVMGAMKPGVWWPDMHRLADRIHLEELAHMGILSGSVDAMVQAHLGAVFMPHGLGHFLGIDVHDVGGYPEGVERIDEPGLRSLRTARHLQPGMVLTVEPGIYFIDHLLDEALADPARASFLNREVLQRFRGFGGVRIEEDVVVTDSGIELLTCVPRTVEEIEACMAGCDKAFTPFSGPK

With `CONC(=O)[C@H](CC(C)C)NC(=O)[C@@H]1CCCN1C(=O)[C@@H](O)[C@H](N)CC(C)C` [CQ111, (S)-1-((2S,3R)-3-amino-2-hydroxy-5-methylhexanoyl)-N—((S)-1-(methoxyamino)-4-methyl-1-oxopentan-2-yl)pyrrolidine-2-carboxamide], the IC50 on recombinant human PEPD worked out at 14 µM; on XPNPEP1, 84 µM.
As for `COC(=O)[C@@H]1CCCN1C(=O)[C@@H](O)[C@H](N)c1ccc2ccoc2c1` [CQ69, Methyl ((2S,3R)-3-amino-3-(benzofuran-6-yl)-2-hydroxypropanoyl)-L-prolinate], the IC50 at recombinant human PEPD was found to be 1.8 µM; on XPNPEP1, 47 µM.
Turning to `CC(C)C[C@H](NC(=O)[C@@H]1CCCN1C(=O)[C@@H](O)[C@H](N)CC(C)C)C(=O)NCCF` [CQ114, (S)-1-((2S,3R)-3-amino-2-hydroxy-5-methylhexanoyl)-N—((S)-1-((2-fluoroethyl)amino)-4-methyl-1-oxopentan-2-yl)pyrrolidine-2-carboxamide], the figures for the IC50 on recombinant human PEPD and on XPNPEP1 were 0.72 µM and 7 µM, respectively.
With `CC(C)C[C@H](NC(=O)[C@@H]1CCCN1C(=O)[C@@H](O)[C@H](N)CC(C)C)C(N)=O` [CQ96, (S)-1-((2S,3R)-3-amino-2-hydroxy-5-methylhexanoyl)-N—((S)-1-amino-4-methyl-1-oxopentan-2-yl)pyrrolidine-2-carboxamide], the IC50 is 7.5 µM on recombinant human PEPD and 10 µM against XPNPEP1.
`COC(=O)[C@@H]1CCCN1C(=O)[C@@H](O)[C@H](N)C(C)C` [CQ59, Methyl ((2S,3R)-3-amino-2-hydroxy-4-methylpentanoyl)-L-prolinate]: the IC50 on recombinant human PEPD came to 1.8 µM; against XPNPEP1, 190 µM.
For `COC(=O)[C@@H]1CCCN1C(=O)[C@@H](O)[C@H](N)c1cccs1` [CQ70, Methyl ((2S,3S)-3-amino-2-hydroxy-3-(thiophen-2-yl)propanoyl)-L-prolinate], in that order: 2 µM and 65 µM.
In the case of `COC(=O)[C@@H]1CCCN1C(=O)[C@@H](O)[C@H](N)c1ccccc1` [CQ64, Methyl ((2S,3R)-3-amino-2-hydroxy-3-phenylpropanoyl)-L-prolinate], the results for the IC50 on recombinant human PEPD and against XPNPEP1 were 2.8 µM and 203 µM, respectively.
With `CC(C)C[C@H](NC(=O)[C@@H]1CCCN1C(=O)[C@@H](O)[C@H](N)CC(C)C)C(=O)NCCc1ccc2ccccc2c1` [CQ117, (S)-1-((2S,3R)-3-amino-2-hydroxy-5-methylhexanoyl)-N—((S)-4-methyl-1-((2-(naphthalen-2-yl)ethyl)amino)-1-oxopentan-2-yl)pyrrolidine-2-carboxamide], the IC50 on recombinant human PEPD amounted to 7.6 µM; against XPNPEP1, 2.2 µM.
Consider `CC(C)C[C@H](NC(=O)[C@@H]1CCCN1C(=O)[C@@H](O)[C@H](N)CC(C)C)C(=O)NCCc1ccc(-c2ccccc2)cc1` [CQ119, (S)—N—((S)-1-((2-([1,1′-biphenyl]-4-yl)ethyl)amino)-4-methyl-1-oxopentan-2-yl)-1-((2S,3R)-3-amino-2-hydroxy-5-methylhexanoyl)pyrrolidine-2-carboxamide], for which the results for the half-inhibitory concentration (IC50) at recombinant human PEPD and on XPNPEP1 were 14 µM and 1.7 µM, respectively.
`CC(C)C[C@H](NC(=O)[C@@H]1CCCN1C(=O)[C@@H](O)[C@H](N)CC(C)C)C(=O)NC(C)(C)C` [CQ115, (S)-1-((2S,3R)-3-amino-2-hydroxy-5-methylhexanoyl)-N—((S)-1-(tert-butylamino)-4-methyl-1-oxopentan-2-yl)pyrrolidine-2-carboxamide]: the IC50 was determined as 3.7 µM at recombinant human PEPD and 14 µM against XPNPEP1.
With `CCCC[C@@H](N)[C@H](O)C(=O)N1CCC[C@H]1C(=O)OC` [CQ63], the IC50 on recombinant human PEPD came out at 0.53 µM; against XPNPEP1, 92 µM.
Consider `COC(=O)[C@@H]1CCCN1C(=O)[C@@H](O)[C@H](N)CC(C)(C)C` [CQ45, Methyl ((2S,3R)-3-amino-2-hydroxy-5,5-dimethylhexanoyl)-L-prolinate], for which the figures for the IC50 on recombinant human PEPD and against XPNPEP1 were 1.5 µM and 57 µM, respectively.
With `CC(C)C[C@H](NC(=O)[C@@H]1CCCN1C(=O)[C@@H](O)[C@H](N)CC(C)C)C(=O)N1CCC1` [CQ112, (S)-1-((2S,3R)-3-amino-2-hydroxy-5-methylhexanoyl)-N—((S)-1-(azetidin-1-yl)-4-methyl-1-oxopentan-2-yl)pyrrolidine-2-carboxamide], the IC50 is 66 µM on recombinant human PEPD and 95 µM on XPNPEP1.
With `COC(=O)[C@@H]1CCCN1C(=O)[C@@H](O)[C@H](N)CCC(F)(F)F` [CQ43, Methyl ((2S,3R)-3-amino-6,6,6-trifluoro-2-hydroxyhexanoyl)-L-prolinate], the IC50 stood at 1.3 µM on recombinant human PEPD and 115 µM against XPNPEP1.
As to `COC(=O)[C@@H]1CC2(CC2)CN1C(=O)[C@@H](O)[C@H](N)CC(C)C` [CQ36, Methyl (S)-5-((2S,3R)-3-amino-2-hydroxy-5-methylhexanoyl)-5-azaspiro[2.4]heptane-6-carboxylate], the concentration for half-maximal inhibition (IC50) at recombinant human PEPD was found to be 1 µM; against XPNPEP1, 324 µM.
On the same counts, the results for `COC(=O)[C@@H]1CCCN1C(=O)[C@@H](O)[C@H](N)Cc1ccccc1` [CQ42, Methyl ((2S,3R)-3-amino-2-hydroxy-4-phenylbutanoyl)-L-prolinate] are 7.6 µM and 241 µM.
As to `CC(C)C[C@H](NC(=O)[C@@H]1CCCN1C(=O)[C@@H](O)[C@H](N)CC(C)C)C(=O)N(C)C` [CQ109, (S)-1-((2S,3R)-3-amino-2-hydroxy-5-methylhexanoyl)-N—((S)-1-(dimethylamino)-4-methyl-1-oxopentan-2-yl)pyrrolidine-2-carboxamide], the IC50 on recombinant human PEPD was 4 µM; on XPNPEP1, 11 µM.
Turning to `COC(=O)[C@@H]1C[C@H](C)CN1C(=O)[C@@H](O)[C@H](N)CC(C)C` [CQ38, Methyl (2S,4S)-1-((2S,3R)-3-amino-2-hydroxy-5-methylhexanoyl)-4-methylpyrrolidine-2-carboxylate], the IC50 on recombinant human PEPD was determined as 2.2 µM; at XPNPEP1, 154 µM.
Regarding `COC(=O)[C@@H]1CCCN1C(=O)[C@@H](O)[C@H](N)c1ccco1` [CQ68, Methyl ((2S,3S)-3-amino-3-(furan-2-yl)-2-hydroxypropanoyl)-L-prolinate], the results for the IC50 at recombinant human PEPD and on XPNPEP1 were 1.7 µM and 69 µM, respectively.
For `CC(C)C[C@H](NC(=O)[C@@H]1CCCN1C(=O)[C@@H](O)[C@H](N)CC(C)C)C(=O)NS(=O)(=O)N(C)C` [CQ113, (S)-1-((2S,3R)-3-amino-2-hydroxy-5-methylhexanoyl)-N—((S)-1-((N,N-dimethylsulfamoyl)-amino)-4-methyl-1-oxopentan-2-yl)pyrrolidine-2-carboxamide], the IC50 on recombinant human PEPD worked out at 0.56 µM; against XPNPEP1, 2.9 µM.
Consider `CC(C)CCNC(=O)[C@H](CC(C)C)NC(=O)[C@@H]1CCCN1C(=O)[C@@H](O)[C@H](N)CC(C)C` [CQ110, (S)-1-((2S,3R)-3-amino-2-hydroxy-5-methylhexanoyl)-N—((S)-1-(isopentylamino)-4-methyl-1-oxopentan-2-yl)pyrrolidine-2-carboxamide], for which the IC50 on recombinant human PEPD was 1.5 µM; at XPNPEP1 it was 14 µM.
`COC(=O)[C@@H]1C[C@H](F)CN1C(=O)[C@@H](O)[C@H](N)CC(C)C` [CQ35, Methyl (2S,4S)-1-((2S,3R)-3-amino-2-hydroxy-5-methylhexanoyl)-4-fluoropyrrolidine-2-carboxylate]: the IC50 turned out to be 0.84 µM at recombinant human PEPD and 74 µM on XPNPEP1.
